Reference: patent publication US20190134005A1 (BioMarin Pharmaceutical Inc., priority 2016, published 2019)
pIC50: −log10 of the molar value.

Each compound was assayed against T1, human CGT (Homo sapiens, UniProt Q16880) (assay: CGT Enzyme Assay (Biological Example 2, RapidFire/MS/MS method with 0.01% Tween 80 added)). Conditions: enzymatic assay, CHO/CGT lysate.
T1 sequence (Q16880 21-541): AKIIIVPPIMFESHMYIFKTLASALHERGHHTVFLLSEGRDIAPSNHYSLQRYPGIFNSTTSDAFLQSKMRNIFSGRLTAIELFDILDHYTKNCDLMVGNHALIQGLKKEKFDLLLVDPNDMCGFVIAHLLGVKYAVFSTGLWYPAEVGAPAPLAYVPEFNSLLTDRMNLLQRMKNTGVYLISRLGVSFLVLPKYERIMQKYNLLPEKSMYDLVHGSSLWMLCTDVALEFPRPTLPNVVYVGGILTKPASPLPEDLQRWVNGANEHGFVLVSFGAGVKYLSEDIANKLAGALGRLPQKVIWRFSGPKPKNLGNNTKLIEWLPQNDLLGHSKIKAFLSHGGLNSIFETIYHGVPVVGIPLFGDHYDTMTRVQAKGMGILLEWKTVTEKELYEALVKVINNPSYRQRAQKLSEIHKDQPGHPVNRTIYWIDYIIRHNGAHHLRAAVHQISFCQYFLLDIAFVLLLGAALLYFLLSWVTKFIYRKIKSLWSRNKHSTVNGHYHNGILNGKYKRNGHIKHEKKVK
Type: biochemical
In short: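 Lysate of CHO cells transfected with full-length human CGT, 0.5% DMSO final, 0.01% Tween 80 added; reactions stopped with methanol:acetonitrile holding internal standard. C6-NBD-dihydro-galactosylceramide and C6-NBD-dihydro-ceramide measured by RapidFire/MS/MS (ESI negative), product peak area normalized to internal standard.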

| SMILES | pIC50 |
| --- | --- |
| CCC[C@]1(C)[C@@H](c2cccc(C#N)c2)N(c2ccc(Cl)cc2)C(=O)N1c1ccc(Cl)cc1 [Example 33-1, 3-((4R,5R)-1,3-bis(4-chlorophenyl)-5-methyl-2-oxo-5-propylimidazolidin-4-yl)benzonitrile] | > 6.00 |
| CCC[C@@]1(C)[C@H](c2cccc(C#N)c2)N(c2ccc(Cl)cc2)C(=O)N1c1ccc(Cl)cc1 [Example 33-2, 3-((4S,5S)-1,3-bis(4-chlorophenyl)-5-methyl-2-oxo-5-propylimidazolidin-4-yl)benzonitrile] | 5.00 to 6.00 |
| CCC[C@]1(C)[C@H](c2cccc(C#N)c2)N(c2ccc(Cl)cc2)C(=O)N1c1ccc(Cl)cc1 [Example 33-3, 3-((4S,5R)-1,3-bis(4-chlorophenyl)-5-methyl-2-oxo-5-propylimidazolidin-4-yl)benzonitrile] | 5.00 to 6.00 |
| CCC[C@@]1(C)[C@@H](c2cccc(C#N)c2)N(c2ccc(Cl)cc2)C(=O)N1c1ccc(Cl)cc1 [Example 33-4, 3-((4R,5S)-1,3-bis(4-chlorophenyl)-5-methyl-2-oxo-5-propylimidazolidin-4-yl)benzonitrile] | > 6.00 |
| CC[C@@]1(C)[C@H](c2cccc(C#N)c2)N(c2ccc(Cl)cc2)C(=O)N1c1ccc(Cl)cc1 [Example 34-1, 3-((4S,5S)-1,3-bis(4-chlorophenyl)-5-ethyl-5-methyl-2-oxoimidazolidin-4-yl)benzonitrile] | > 6.00 |
| CC[C@]1(C)[C@@H](c2cccc(C#N)c2)N(c2ccc(Cl)cc2)C(=O)N1c1ccc(Cl)cc1 [Example 34-2, 3-((4R,5R)-1,3-bis(4-chlorophenyl)-5-ethyl-5-methyl-2-oxoimidazolidin-4-yl)benzonitrile] | 5.00 to 6.00 |
| CC[C@@]1(C)[C@@H](c2cccc(C#N)c2)N(c2ccc(Cl)cc2)C(=O)N1c1ccc(Cl)cc1 [Example 34-3, 3-((4R,5S)-1,3-bis(4-chlorophenyl)-5-ethyl-5-methyl-2-oxoimidazolidin-4-yl)benzonitrile] | > 6.00 |
| CC[C@]1(C)[C@H](c2cccc(C#N)c2)N(c2ccc(Cl)cc2)C(=O)N1c1ccc(Cl)cc1 [Example 34-4, 3-((4S,5R)-1,3-bis(4-chlorophenyl)-5-ethyl-5-methyl-2-oxoimidazolidin-4-yl)benzonitrile] | 4.52 to 5.00 |
| Cc1ccc(N2C(=O)N(c3ccc(C)cc3)C3(CCCC3)[C@H]2c2cccc(OC(F)(F)F)c2)cc1 [Example 35-1, (R)-1,3-di-p-tolyl-4-(3-(trifluoromethoxy)phenyl)-1,3-diazaspiro[4.4]nonan-2-one] | 5.00 to 6.00 |
| Cc1ccc(N2C(=O)N(c3ccc(C)cc3)C3(CCCC3)[C@@H]2c2cccc(OC(F)(F)F)c2)cc1 [Example 35-2, (S)-1,3-di-p-tolyl-4-(3-(trifluoromethoxy)phenyl)-1,3-diazaspiro[4.4]nonan-2-one] | > 6.00 |
| N#Cc1ccc(N2C(=O)N(c3ccc(C#N)cc3)C3(COC3)[C@H]2c2cccc(OC(F)(F)F)c2)cc1 [Example 36-1] | 4.52 to 5.00 |
| N#Cc1ccc(N2C(=O)N(c3ccc(C#N)cc3)C3(COC3)[C@@H]2c2cccc(OC(F)(F)F)c2)cc1 [Example 36-2] | > 6.00 |
| COC[C@@]1(C)[C@@H](c2cccc(OC(F)(F)F)c2)N(c2ccc(Cl)cc2)C(=O)N1c1ccc(Cl)cc1 [Example 37-1, (4R,5R)-1,3-bis(4-chlorophenyl)-4-(methoxymethyl)-4-methyl-5-(3-(trifluoromethoxy)phenyl)imidazolidin-2-one] | 5.00 to 6.00 |

Continued, values first:

| pIC50 | SMILES |
| --- | --- |
| > 6.00 | COC[C@]1(C)[C@H](c2cccc(OC(F)(F)F)c2)N(c2ccc(Cl)cc2)C(=O)N1c1ccc(Cl)cc1 [Example 37-2, (4S,5S)-1,3-bis(4-chlorophenyl)-4-(methoxymethyl)-4-methyl-5-(3-(trifluoromethoxy)phenyl)imidazolidin-2-one] |
| 5.00 to 6.00 | COC[C@@]1(C)[C@@H](c2cccc(C#N)c2)N(c2ccc(Cl)cc2)C(=O)N1c1ccc(Cl)cc1 [Example 38-1, 3-((4R,5R)-1,3-bis(4-chlorophenyl)-5-(methoxymethyl)-5-methyl-2-oxoimidazolidin-4-yl)benzonitrile] |
| > 6.00 | COC[C@]1(C)[C@H](c2cccc(C#N)c2)N(c2ccc(Cl)cc2)C(=O)N1c1ccc(Cl)cc1 [Example 38-2, 3-((4S,5S)-1,3-bis(4-chlorophenyl)-5-(methoxymethyl)-5-methyl-2-oxoimidazolidin-4-yl)benzonitrile] |
| > 6.00 | C[C@@]1(C(F)(F)F)[C@H](c2cccc(OC(F)(F)F)c2)N(c2ccc(C#N)cc2)C(=O)N1c1ccc(C#N)cc1 [Example 39-1, 4,4′-((4S,5S)-4-methyl-2-oxo-5-(3-(trifluoromethoxy)phenyl)-4-(trifluoromethyl)imidazolidine-1,3-diyl)dibenzonitrile] |
| 4.52 to 5.00 | C[C@]1(C(F)(F)F)[C@@H](c2cccc(OC(F)(F)F)c2)N(c2ccc(C#N)cc2)C(=O)N1c1ccc(C#N)cc1 [Example 39-2, 4,4′-((4R,5R)-4-methyl-2-oxo-5-(3-(trifluoromethoxy)phenyl)-4-(trifluoromethyl)imidazolidine-1,3-diyl)dibenzonitrile] |
| 4.52 to 5.00 | CC1(C)[C@@H](c2cccc(OC(F)(F)F)c2)N(c2ccc(C#N)cc2)C(=O)N1c1ccc(Cl)cc1 [Example 40-1, (R)-4-(3-(4-chlorophenyl)-4,4-dimethyl-2-oxo-5-(3-(trifluoromethoxy)phenyl)imidazolidin-1-yl)benzonitrile] |
| > 6.00 | CC1(C)[C@H](c2cccc(OC(F)(F)F)c2)N(c2ccc(C#N)cc2)C(=O)N1c1ccc(Cl)cc1 [Example 40-2, (S)-4-(3-(4-chlorophenyl)-4,4-dimethyl-2-oxo-5-(3-(trifluoromethoxy)phenyl)imidazolidin-1-yl)benzonitrile] |
| 4.52 to 5.00 | CC1(C)[C@@H](c2cccc(OC(F)(F)F)c2)N(c2ccc(Cl)cc2)C(=O)N1c1ccc(C#N)cc1 [Example 41-1, (R)-4-(3-(4-chlorophenyl)-5,5-dimethyl-2-oxo-4-(3-(trifluoromethoxy)phenyl)imidazolidin-1-yl)benzonitrile] |
| > 6.00 | CC1(C)[C@H](c2cccc(OC(F)(F)F)c2)N(c2ccc(Cl)cc2)C(=O)N1c1ccc(C#N)cc1 [Example 41-2, (S)-4-(3-(4-chlorophenyl)-5,5-dimethyl-2-oxo-4-(3-(trifluoromethoxy)phenyl)imidazolidin-1-yl)benzonitrile] |
| 5.00 to 6.00 | Cc1ccc(N2C(=O)N(c3ccc(C#N)cc3)C3(COC3)[C@H]2c2cccc(OC(F)(F)F)c2)cc1 [Example 43-1, (R)-4-(6-oxo-7-(p-tolyl)-8-(3-(trifluoromethoxy)phenyl)-2-oxa-5,7-diazaspiro[3.4]octan-5-yl)benzonitrile] |
| > 6.00 | Cc1ccc(N2C(=O)N(c3ccc(C#N)cc3)C3(COC3)[C@@H]2c2cccc(OC(F)(F)F)c2)cc1 [Example 43-2, (S)-4-(6-oxo-7-(p-tolyl)-8-(3-(trifluoromethoxy)phenyl)-2-oxa-5,7-diazaspiro[3.4]octan-5-yl)benzonitrile] |
| 5.00 to 6.00 | C[C@@]1(C(F)(F)F)[C@H](c2cccc(OC(F)(F)F)c2)N(c2ccc(Br)cc2)C(=O)N1c1ccc(C#N)cc1 [Example 44-1, 4-((4S,5S)-3-(4-bromophenyl)-5-methyl-2-oxo-4-(3-(trifluoromethoxy)phenyl)-5-(trifluoromethyl)imidazolidin-1-yl)benzonitrile] |
| > 6.00 | C[C@]1(C(F)(F)F)[C@@H](c2cccc(OC(F)(F)F)c2)N(c2ccc(Br)cc2)C(=O)N1c1ccc(C#N)cc1 [Example 44-2, 4-((4R,5R)-3-(4-bromophenyl)-5-methyl-2-oxo-4-(3-(trifluoromethoxy)phenyl)-5-(trifluoromethyl)imidazolidin-1-yl)benzonitrile] |
| > 6.00 | N#Cc1ccc(N2C(=O)N(c3ccc(Cl)cc3)[C@H](c3cccc(OC(F)(F)F)c3)C23COC3)cc1 [Example 46-1, (R)-4-(7-(4-chlorophenyl)-6-oxo-8-(3-(trifluoromethoxy)phenyl)-2-oxa-5,7-diazaspiro[3.4]octan-5-yl)benzonitrile] |
| 5.00 to 6.00 | N#Cc1ccc(N2C(=O)N(c3ccc(Cl)cc3)[C@@H](c3cccc(OC(F)(F)F)c3)C23COC3)cc1 [Example 46-2, (S)-4-(7-(4-chlorophenyl)-6-oxo-8-(3-(trifluoromethoxy)phenyl)-2-oxa-5,7-diazaspiro[3.4]octan-5-yl)benzonitrile] |
| 4.52 to 5.00 | N#Cc1ccc(N2C(=O)N(c3ccc(Cl)cc3)C3(COC3)[C@H]2c2cccc(OC(F)(F)F)c2)cc1 [Example 47-1, (R)-4-(5-(4-chlorophenyl)-6-oxo-8-(3-(trifluoromethoxy)phenyl)-2-oxa-5,7-diazaspiro[3.4]octan-7-yl)benzonitrile] |
| > 6.00 | N#Cc1ccc(N2C(=O)N(c3ccc(Cl)cc3)C3(COC3)[C@@H]2c2cccc(OC(F)(F)F)c2)cc1 [Example 47-2, (S)-4-(5-(4-chlorophenyl)-6-oxo-8-(3-(trifluoromethoxy)phenyl)-2-oxa-5,7-diazaspiro[3.4]octan-7-yl)benzonitrile] |
| 4.52 to 5.00 | Cc1ccc(N2C(=O)N(c3ccc(C#N)cc3)[C@H](c3cccc(C#N)c3)C2(C)C)cc1 [Example 48-1, (R)-3-(3-(4-cyanophenyl)-5,5-dimethyl-2-oxo-1-(p-tolyl)imidazolidin-4-yl)benzonitrile] |
